Assay results taken from patent US11078216B2, “Bisaryl amides as NRF2 activators” (GLAXOSMITHKLINE INTELLECTUAL PROPERTY DEVELOPMENT LIMITED, priority 2016, dated 2021).

Test system: NRF2 (NQO1 activity as marker for NRF2 activation), BEAS-2B cells
Experiment: BEAS-2B NQO1 MTT Assay
Type: cell-based
Details: Homo sapiens, EC50 of NQO1 specific activity induction, 48 hours incubation, read-out: EC50
How it was run: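 As a marker of NRF2 activation, NQO1 specific activity was read from the rate of absorbance change at 570 nm in MTT cocktail over 30 minutes. Lysates came from BEAS-2B cells treated for 48 hours at 37° C, and EC50 was derived by 3-parameter fitting.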

Row | SMILES | EC50 [µM]
1 | CC[C@@H]1CN(Cc2cc([C@H](CC(=O)Nc3ccnnc3)c3ccc4c(nnn4CC)c3C)ccc2C)S(=O)(=O)c2cccnc2O1 [Example 107, (S)-3-(3-(((R)-4-Ethyl-1,1-dioxido-3,4-dihydro-2H-pyrido[2,3-b][1,4,5]oxathiazepin-2-yl)methyl)-4-methylphenyl)-3-(1-ethyl-4-methyl-1H-benzo[d][1,2,3]triazol-5-yl)-N-(pyridazin-4-yl)propanamide] | 0.1 to 1
2 | CC[C@@H]1CN(Cc2cc([C@H](CC(=O)Nc3ccncn3)c3ccc4c(nnn4CC)c3C)ccc2C)S(=O)(=O)c2cccnc2O1 [Example 108, (S)-3-(3-(((R)-4-Ethyl-1,1-dioxido-3,4-dihydro-2H-pyrido[2,3-b][1,4,5]oxathiazepin-2-yl)methyl)-4-methylphenyl)-3-(1-ethyl-4-methyl-1H-benzo[d][1,2,3]triazol-5-yl)-N-(pyrimidin-4-yl)propanamide] | 0.1 to 1
3 | CC[C@@H]1CN(Cc2cc([C@H](CC(=O)Nc3cncnc3)c3ccc4c(nnn4CC)c3C)ccc2C)S(=O)(=O)c2cccnc2O1 [Example 109, (S)-3-(3-(((R)-4-Ethyl-1,1-dioxido-3,4-dihydro-2H-pyrido[2,3-b][1,4,5]oxathiazepin-2-yl)methyl)-4-methylphenyl)-3-(1-ethyl-4-methyl-1H-benzo[d][1,2,3]triazol-5-yl)-N-(pyrimidin-5-yl)propanamide] | 0.01 to 0.1
4 | CC[C@@H]1CN(Cc2cc([C@H](CC(=O)Nc3cccnc3)c3ccc4c(nnn4CC)c3C)ccc2Cl)S(=O)(=O)c2cccnc2O1 [Example 110, (S)-3-(4-Chloro-3-(((R)-4-ethyl-1,1-dioxido-3,4-dihydro-2H-pyrido[2,3-b][1,4,5]oxathiazepin-2-yl)methyl)phenyl)-3-(1-ethyl-4-methyl-1H-benzo[d][1,2,3]triazol-5-yl)-N-(pyridin-3-yl)propanamide] | 0.01 to 0.1
5 | CC[C@@H]1CN(Cc2cc([C@@H](c3ccc4c(nnn4C)c3C)C(C)(C)C(=O)Nc3ccncc3)ccc2C)Cc2cnccc2O1 [Example 112, (S)-3-(1,4-Dimethyl-1H-benzo[d][1,2,3]triazol-5-yl)-3-(3-(((R)-2-ethyl-2,3-dihydropyrido[3,4-f][1,4]oxazepin-4(5H)-yl)methyl)-4-methylphenyl)-2,2-dimethyl-N-(pyridin-4-yl)propanamide] | 0.1 to 1
6 | CC[C@@H]1CN(Cc2cc([C@@H](c3ccc4c(nnn4CC)c3C)C(C)(C)C(=O)N[C@H]3CCOC3)ccc2C)S(=O)(=O)c2cccnc2O1 [Example 113, (S)-3-(3-(((R)-4-Ethyl-1,1-dioxido-3,4-dihydro-2H-pyrido[2,3-b][1,4,5]oxathiazepin-2-yl)methyl)-4-methylphenyl)-3-(1-ethyl-4-methyl-1H-benzo[d][1,2,3]triazol-5-yl)-2,2-dimethyl-N-((S)-tetrahydrofuran-3-yl)propanamide] | 0.01 to 0.1
7 | CC[C@@H]1CN(Cc2cc([C@@H](c3ccc4c(nnn4CC)c3C)C(C)(C)C(=O)N[C@@H]3CCOC3)ccc2C)S(=O)(=O)c2cccnc2O1 [Example 114, (S)-3-(3-(((R)-4-Ethyl-1,1-dioxido-3,4-dihydro-2H-pyrido[2,3-b][1,4,5]oxathiazepin-2-yl)methyl)-4-methylphenyl)-3-(1-ethyl-4-methyl-1H-benzo[d][1,2,3]triazol-5-yl)-2,2-dimethyl-N-((R)-tetrahydrofuran-3-yl)propanamide] | 0.01 to 0.1
8 | CC[C@@H]1CN(Cc2cc([C@@H](c3ccc4c(nnn4CC)c3C)C(C)(C)C(=O)Nc3cnc(SC)nc3)ccc2C)S(=O)(=O)c2cccnc2O1 [Example 115, (S)-3-(3-(((R)-4-Ethyl-1,1-dioxido-3,4-dihydro-2H-pyrido[2,3-b][1,4,5]oxathiazepin-2-yl)methyl)-4-methylphenyl)-3-(1-ethyl-4-methyl-1H-benzo[d][1,2,3]triazol-5-yl)-2,2-dimethyl-N-(2-(methylthio)pyrimidin-5-yl)propanamide] | 0.001 to 0.01
9 | CC[C@@H]1CN(Cc2cc([C@H](c3ccc4c(nnn4CC)c3C)C(C)(C)C(=O)Nc3cccnc3)ccc2C)S(=O)(=O)c2cccnc2O1 [Example 116, (R)-3-(3-(((R)-4-Ethyl-1,1-dioxido-3,4-dihydro-2H-pyrido[2,3-b][1,4,5]oxathiazepin-2-yl)methyl)-4-methylphenyl)-3-(1-ethyl-4-methyl-1H-benzo[d][1,2,3]triazol-5-yl)-2,2-dimethyl-N-(pyridin-3-yl)propanamide] | 0.01 to 0.1
10 | CC[C@@H]1CN(Cc2cc([C@@H](c3ccc4c(nnn4CC)c3C)C(C)(C)C(=O)Nc3cncnc3)ccc2C)S(=O)(=O)c2cccnc2O1 [Example 117, (S)-3-(3-(((R)-4-Ethyl-1,1-dioxido-3,4-dihydro-2H-pyrido[2,3-b][1,4,5]oxathiazepin-2-yl)methyl)-4-methylphenyl)-3-(1-ethyl-4-methyl-1H-benzo[d][1,2,3]triazol-5-yl)-2,2-dimethyl-N-(pyrimidin-5-yl)propanamide] | 0.001 to 0.01
11 | CC[C@@H]1CN(Cc2cc([C@H](CC(=O)Nc3cnccn3)c3ccc4c(nnn4CC)c3C)ccc2C)S(=O)(=O)c2cccnc2O1 [Example 118, (S)-3-(3-(((R)-4-Ethyl-1,1-dioxido-3,4-dihydro-2H-pyrido[2,3-b][1,4,5]oxathiazepin-2-yl)methyl)-4-methylphenyl)-3-(1-ethyl-4-methyl-1H-benzo[d][1,2,3]triazol-5-yl)-N-(pyrazin-2-yl)propanamide] | 0.01 to 0.1
12 | CC[C@H]1Cc2ncccc2S(=O)(=O)N(Cc2cc([C@@H](c3ccc4c(nnn4CC)c3C)C(C)(C)C(=O)Nc3cccnc3)ccc2C)C1 [Example 119, (S)-3-(3-(((S)-4-Ethyl-1,1-dioxido-4,5-dihydropyrido[2,3-f][1,2]thiazepin-2(3H)-yl)methyl)-4-methylphenyl)-3-(1-ethyl-4-methyl-1H-benzo[d][1,2,3]triazol-5-yl)-2,2-dimethyl-N-(pyridin-3-yl)propanamide] | 0.001 to 0.01
13 | CC[C@@H]1CN(Cc2cc([C@@H](c3ccc4c(nnn4CC)c3C)C(C)(C)C(=O)Nc3cccnc3)ccc2C)S(=O)(=O)c2cccnc2O1 [Example 120, (S)-3-(3-(((R)-4-Ethyl-1,1-dioxido-3,4-dihydro-2H-pyrido[2,3-b][1,4,5]oxathiazepin-2-yl)methyl)-4-methylphenyl)-3-(1-ethyl-4-methyl-1H-benzo[d][1,2,3]triazol-5-yl)-2,2-dimethyl-N-(pyridin-3-yl)propanamide] | 0.001 to 0.01
14 | CC[C@@H]1CN(Cc2cc([C@H](CC(=O)Nc3ncccn3)c3ccc4c(nnn4CC)c3C)ccc2C)S(=O)(=O)c2cccnc2O1 [Example 121, (S)-3-(3-(((R)-4-Ethyl-1,1-dioxido-3,4-dihydro-2H-pyrido[2,3-b][1,4,5]oxathiazepin-2-yl)methyl)-4-methylphenyl)-3-(1-ethyl-4-methyl-1H-benzo[d][1,2,3]triazol-5-yl)-N-(pyrimidin-2-yl)propanamide] | 0.1 to 1
15 | CC[C@@H]1CN(Cc2cc([C@H](CC(=O)Nc3cccnn3)c3ccc4c(nnn4CC)c3C)ccc2C)S(=O)(=O)c2cccnc2O1 [Example 122, (S)-3-(3-(((R)-4-Ethyl-1,1-dioxido-3,4-dihydro-2H-pyrido[2,3-b][1,4,5]oxathiazepin-2-yl)methyl)-4-methylphenyl)-3-(1-ethyl-4-methyl-1H-benzo[d][1,2,3]triazol-5-yl)-N-(pyridazin-3-yl)propanamide] | 0.1 to 1
16 | CC[C@@H]1CN(Cc2cc([C@H](CC(=O)Nc3cnc(OC)nc3)c3ccc4c(nnn4CC)c3C)ccc2C)S(=O)(=O)c2cccnc2O1 [Example 123, (S)-3-(3-(((R)-4-Ethyl-1,1-dioxido-3,4-dihydro-2H-pyrido[2,3-b][1,4,5]oxathiazepin-2-yl)methyl)-4-methylphenyl)-3-(1-ethyl-4-methyl-1H-benzo[d][1,2,3]triazol-5-yl)-N-(2-methoxypyrimidin-5-yl)propanamide] | 0.01 to 0.1
17 | CCOCCOc1ncc(NC(=O)C(C)(C)[C@@H](c2ccc(C)c(CN3C[C@@H](CC)Oc4ncccc4S3(=O)=O)c2)c2ccc3c(nnn3CC)c2C)cn1 [Example 124, (S)—N-(2-(2-Ethoxyethoxy)pyrimidin-5-yl)-3-(3-(((R)-4-ethyl-1,1-dioxido-3,4-dihydro-2H-pyrido[2,3-b][1,4,5]oxathiazepin-2-yl)methyl)-4-methylphenyl)-3-(1-ethyl-4-methyl-1H-benzo[d][1,2,3]triazol-5-yl)-2,2-dimethylpropanamide] | 0.001 to 0.01
18 | CC[C@@H]1CN(Cc2cc([C@H](CC(=O)Nc3cnc(N4CCCCC4)nc3)c3ccc4c(nnn4CC)c3C)ccc2C)S(=O)(=O)c2cccnc2O1 [Example 125, (S)-3-(3-(((R)-4-Ethyl-1,1-dioxido-3,4-dihydro-2H-pyrido[2,3-b][1,4,5]oxathiazepin-2-yl)methyl)-4-methylphenyl)-3-(1-ethyl-4-methyl-1H-benzo[d][1,2,3]triazol-5-yl)-N-(2-(piperidin-1-yl)pyrimidin-5-yl)propanamide] | 0.01 to 0.1
19 | CC[C@@H]1CN(Cc2cc([C@H](CC(=O)Nc3cnc(NC)nc3)c3ccc4c(nnn4CC)c3C)ccc2C)S(=O)(=O)c2cccnc2O1 [Example 126, (S)-3-(3-(((R)-4-Ethyl-1,1-dioxido-3,4-dihydro-2H-pyrido[2,3-b][1,4,5]oxathiazepin-2-yl)methyl)-4-methylphenyl)-3-(1-ethyl-4-methyl-1H-benzo[d][1,2,3]triazol-5-yl)-N-(2-(methylamino)pyrimidin-5-yl)propanamide] | 0.1 to 1
20 | CC[C@@H]1CN(Cc2cc([C@H](CC(=O)Nc3cnc(NC(CO)CO)nc3)c3ccc4c(nnn4CC)c3C)ccc2C)S(=O)(=O)c2cccnc2O1 [Example 127, (S)—N-(2-((1,3-Dihydroxypropan-2-yl)amino)pyrimidin-5-yl)-3-(3-(((R)-4-ethyl-1,1-dioxido-3,4-dihydro-2H-pyrido[2,3-b][1,4,5]oxathiazepin-2-yl)methyl)-4-methylphenyl)-3-(1-ethyl-4-methyl-1H-benzo[d][1,2,3]triazol-5-yl)propanamide] | 1 to 10
